Results as given in ChEMBL document CHEMBL1201862, “PubChem BioAssay data set” (2004).
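Values below derive from 48-hour exposures of cells grown in 96-well plates, with endpoints linearly interpolated between the two concentrations bracketing the appropriate inhibition level. Here, GI50 denotes the concentration required for 50% inhibition of growth.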 Active and inactive are the calls of the source. Cut-off read from the data, not from the text of the source: active = GI50 up to about 1.1 µM and inactive = higher.

Experiments:
Assay in all cases: DTP human tumour cell line panel, 48 h
[1] = system: U-251
[2] = system: XF498
[3] = system: SNB-75
[4] = system: UACC-257
[5] = system: UACC-62
[6] = system: NCI-H226
[7] = system: OVCAR-4
[8] = system: SF-268
[9] = system: M19-MEL
[10] = system: HOP-92
[11] = system: HOP-62
[12] = system: HT-29
[13] = system: OVCAR-3
[14] = system: KM12
[15] = system: ACHN
[16] = system: DLD-1
[17] = system: IGROV-1
[18] = system: K562
[19] = system: UO-31
[20] = system: RPMI-8226
[21] = system: HCT-15
[22] = system: SF-295
[23] = system: SF-539
[24] = system: SK-MEL-5
[25] = system: M14
[26] = system: SK-MEL-2
[27] = system: Malme-3M
[28] = system: HL-60
[29] = system: OVCAR-8
[30] = system: DMS-273
[31] = system: NCI-H522
[32] = system: NCI-H460
[33] = system: OVCAR-5
[34] = system: HCT-116
[35] = system: CCRF-CEM
[36] = system: SW-620
[37] = system: KM-20L2
[38] = system: SNB-19
[39] = system: 786-0
[40] = system: SK-MEL-28
[41] = system: TK-10
[42] = system: LXFL 529
[43] = system: DMS-114
[44] = system: SR
[45] = system: HCC 2998
[46] = system: NCI-H23
[47] = system: MOLT-4
[48] = system: COLO 205
[49] = system: CAKI-1
[50] = system: A549
[51] = system: LOX IMVI
[52] = system: SK-OV-3
[53] = system: SN12C
[54] = system: EKVX
[55] = system: SNB-78
[56] = system: RXF 393
[57] = system: A498

In the case of `O=C(c1ccccc1)c1c(CC(O)c2ccccc2)n(C(=O)c2ccccc2)c2ccccc12` (configuration not stated), the GI50 [1] is reported as 36.1 µM (inactive), the GI50 [2] is reported as > 100 µM (inactive) and the GI50 [3] is reported as 6.97 µM (inactive). The GI50 [4] was 35.3 µM (inactive), the GI50 [5] was 46.3 µM (inactive) and the GI50 [6] was 31.6 µM (inactive). The GI50 [7] was 35.5 µM (inactive), the GI50 [8] was 43.5 µM (inactive) and the GI50 [9] was 59 µM (inactive). For the same molecule, the GI50 [10] was 29.7 µM (inactive), the GI50 [11] was 24.2 µM (inactive) and the GI50 [12] was 63.8 µM (inactive). The GI50 [13] was 28.8 µM (inactive), the GI50 [14] was 32 µM (inactive) and the GI50 [15] was 34.4 µM (inactive). The GI50 [16] was 40.9 µM (inactive), the GI50 [17] was 42.6 µM (inactive) and the GI50 [18] was 27.9 µM (inactive). The GI50 [19] was 19.9 µM (inactive), the GI50 [20] was 25.2 µM (inactive) and the GI50 [21] was 32.7 µM. The GI50 [22] was 28.8 µM (inactive), the GI50 [23] was 34.2 µM (inactive) and the GI50 [24] was 29.2 µM (inactive). For the same molecule, the GI50 [25] was 33 µM (inactive), the GI50 [26] was 36.5 µM (inactive) and the GI50 [27] was 56.2 µM (inactive). The GI50 [28] was 31.3 µM (inactive), the GI50 [29] was 57.7 µM (inactive) and the GI50 [30] was 43 µM (inactive). The GI50 [31] was 17.5 µM (inactive), the GI50 [32] was 30.1 µM (inactive) and the GI50 [33] was > 100 µM (inactive). For the same molecule, the GI50 [34] was 23.1 µM (inactive), the GI50 [35] was 35.8 µM (inactive) and the GI50 [36] was 50.7 µM (inactive). For the same molecule, the GI50 [37] was 55.8 µM (inactive), the GI50 [38] was 36.4 µM (inactive) and the GI50 [39] was > 100 µM (inactive). The GI50 [40] was 95.1 µM (inactive), the GI50 [41] was > 100 µM (inactive) and the GI50 [42] was 39.5 µM (inactive). For the same molecule, the GI50 [43] was 28 µM (inactive), the GI50 [44] was 16.9 µM (inactive) and the GI50 [45] was 42.1 µM (inactive). For the same molecule, the GI50 [46] was 19 µM (inactive), the GI50 [47] was 16.6 µM (inactive) and the GI50 [48] was 47.6 µM (inactive). The GI50 [49] was 55.7 µM (inactive) and the GI50 [50] was 31.6 µM (inactive).

With `CN1C(=S)CSc2ccccc21` the GI50 [1] was > 100 µM (inactive), the GI50 [2] was 32.4 µM (inactive) and the GI50 [3] was 42.9 µM (inactive). The GI50 [4] was > 100 µM (inactive), the GI50 [51] was > 100 µM (inactive) and the GI50 [6] was 89.1 µM (inactive). For the same molecule, the GI50 [7] was > 100 µM (inactive), the GI50 [8] was > 100 µM (inactive) and the GI50 [9] was > 100 µM (inactive). The GI50 [10] was 90.2 µM (inactive), the GI50 [11] was > 100 µM (inactive) and the GI50 [12] was > 100 µM (inactive). For the same molecule, the GI50 [13] was > 100 µM (inactive), the GI50 [14] was > 100 µM (inactive) and the GI50 [15] was > 100 µM (inactive). For the same molecule, the GI50 [16] was > 100 µM (inactive), the GI50 [17] was > 100 µM (inactive) and the GI50 [18] was > 100 µM (inactive). The GI50 [52] was > 100 µM (inactive), the GI50 [19] was 42.3 µM (inactive) and the GI50 [20] was 89.7 µM (inactive). The GI50 [21] was > 100 µM, the GI50 [23] was > 100 µM (inactive) and the GI50 [24] was 97.1 µM (inactive). The GI50 [53] was > 100 µM (inactive), the GI50 [54] was 44.1 µM (inactive) and the GI50 [25] was > 100 µM (inactive). The GI50 [26] was > 100 µM (inactive), the GI50 [27] was > 100 µM (inactive) and the GI50 [28] was > 100 µM (inactive). The GI50 [29] was > 100 µM (inactive), the GI50 [30] was > 100 µM (inactive) and the GI50 [31] was > 100 µM (inactive). For the same molecule, the GI50 [32] was > 100 µM (inactive), the GI50 [33] was > 100 µM (inactive) and the GI50 [34] was > 100 µM (inactive). The GI50 [35] was > 100 µM (inactive), the GI50 [36] was > 100 µM (inactive) and the GI50 [37] was > 100 µM (inactive). For the same molecule, the GI50 [38] was > 100 µM (inactive), the GI50 [39] was > 100 µM (inactive) and the GI50 [40] was > 100 µM (inactive). The GI50 [55] was > 100 µM (inactive), the GI50 [41] was > 100 µM (inactive) and the GI50 [42] was > 100 µM (inactive). For the same molecule, the GI50 [43] was > 100 µM (inactive), the GI50 [44] was > 100 µM (inactive) and the GI50 [46] was > 100 µM (inactive). The GI50 [47] was > 100 µM (inactive), the GI50 [56] was > 100 µM (inactive) and the GI50 [48] was > 100 µM (inactive). For the same molecule, the GI50 [49] was > 100 µM (inactive) and the GI50 [50] was > 100 µM (inactive).

For `CC(=O)O[C@H]1CCC2[C@@H]3CCC4=C(O)C(=O)C(C#N)C[C@]4(C)C3CC[C@@]21C` (some centres not stated), the GI50 [1] was 47.8 µM (inactive), the GI50 [2] was 22 µM (inactive) and the GI50 [3] was 12.6 µM (inactive). The GI50 [4] was 56.5 µM (inactive), the GI50 [5] was 15.5 µM (inactive) and the GI50 [51] was 18.9 µM (inactive). The GI50 [6] was 24.9 µM (inactive), the GI50 [7] was 30.9 µM (inactive) and the GI50 [8] was 24.4 µM (inactive). The GI50 [9] was 45.2 µM (inactive), the GI50 [10] was 3.8 µM (inactive) and the GI50 [11] was 65.5 µM (inactive). The GI50 [12] was 42.5 µM (inactive), the GI50 [13] was 38.6 µM (inactive) and the GI50 [14] was 35.7 µM (inactive). The GI50 [15] was 26.7 µM (inactive), the GI50 [16] was 25.4 µM (inactive) and the GI50 [17] was 26.2 µM (inactive). For the same molecule, the GI50 [18] was 24.8 µM (inactive), the GI50 [52] was 29.4 µM (inactive) and the GI50 [19] was 13.7 µM (inactive). For the same molecule, the GI50 [20] was 12.4 µM (inactive), the GI50 [21] was 30 µM and the GI50 [57] was 361 nM (active). For the same molecule, the GI50 [22] was 45.9 µM (inactive), the GI50 [23] was 50.8 µM (inactive) and the GI50 [24] was 26.1 µM (inactive). For the same molecule, the GI50 [53] was 33.5 µM (inactive), the GI50 [54] was 41.7 µM (inactive) and the GI50 [25] was 34 µM (inactive). For the same molecule, the GI50 [26] was 35 µM (inactive), the GI50 [27] was 36.1 µM (inactive) and the GI50 [28] was 20 µM (inactive). For the same molecule, the GI50 [29] was 44.5 µM (inactive), the GI50 [30] was 19.4 µM (inactive) and the GI50 [32] was 31.6 µM (inactive). The GI50 [33] was 75.9 µM (inactive), the GI50 [34] was 29.5 µM (inactive) and the GI50 [35] was 30.1 µM (inactive). The GI50 [36] was 47.1 µM (inactive), the GI50 [37] was 81.3 µM (inactive) and the GI50 [38] was 45.1 µM (inactive). For the same molecule, the GI50 [39] was 24.4 µM (inactive), the GI50 [40] was 46.7 µM (inactive) and the GI50 [55] was 47.5 µM (inactive). The GI50 [41] was 18.2 µM (inactive), the GI50 [42] was 35 µM (inactive) and the GI50 [43] was 25.6 µM (inactive). For the same molecule, the GI50 [45] was 29 µM (inactive), the GI50 [46] was 29.1 µM (inactive) and the GI50 [47] was 30.5 µM (inactive). The GI50 [56] was 24.9 µM (inactive), the GI50 [48] was 28.4 µM (inactive) and the GI50 [50] was 36.7 µM (inactive).
